Measurements taken from ChEMBL document CHEMBL1201862, “PubChem BioAssay data set” (2004).
Activity calls are given as the source filed them. Rule as the data show it, for most assays here: actives have a measured IC50 and inactives only a lower limit.

Tests used:
[1] = target: T1, Ubiquitin-conjugating enzyme E2 N (Homo sapiens, UniProt P61088); type: functional;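 also: Dose-response confirmation in a TR-FRET assay detecting UBC13-driven polyubiquitin chain formation, inhibition measured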
T1 sequence (P61088 whole entry): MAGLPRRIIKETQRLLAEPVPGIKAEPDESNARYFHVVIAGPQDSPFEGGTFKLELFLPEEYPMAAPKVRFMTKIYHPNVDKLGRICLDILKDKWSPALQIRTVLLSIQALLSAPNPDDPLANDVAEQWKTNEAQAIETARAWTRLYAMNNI

[2] = target: DNA dC->dU-editing enzyme APOBEC-3G (Homo sapiens, UniProt Q9HC16); assay: Dose Response confirmation of small molecule APOBEC3G DNA Deaminase Inhibitors via a fluorescence-based single-stranded DNA deaminase assay. [Related pubchem assays (depositor defined):AID493012, AID493028]; type: functional
DNA dC->dU-editing enzyme APOBEC-3G, sequence (Q9HC16 whole entry): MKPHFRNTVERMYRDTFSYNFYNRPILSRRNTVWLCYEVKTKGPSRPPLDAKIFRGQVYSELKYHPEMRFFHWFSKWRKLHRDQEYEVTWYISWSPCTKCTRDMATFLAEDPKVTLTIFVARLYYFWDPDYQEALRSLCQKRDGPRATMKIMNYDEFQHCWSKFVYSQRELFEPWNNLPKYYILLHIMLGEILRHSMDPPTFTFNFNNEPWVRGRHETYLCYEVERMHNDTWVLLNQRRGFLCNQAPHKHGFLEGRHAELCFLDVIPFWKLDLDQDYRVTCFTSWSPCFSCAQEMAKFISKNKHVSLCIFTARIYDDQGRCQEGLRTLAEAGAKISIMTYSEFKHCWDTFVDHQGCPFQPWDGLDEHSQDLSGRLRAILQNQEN

[3] = target: Glyceraldehyde-3-phosphate dehydrogenase (Homo sapiens, UniProt P04406)
Glyceraldehyde-3-phosphate dehydrogenase, sequence (P04406 whole entry): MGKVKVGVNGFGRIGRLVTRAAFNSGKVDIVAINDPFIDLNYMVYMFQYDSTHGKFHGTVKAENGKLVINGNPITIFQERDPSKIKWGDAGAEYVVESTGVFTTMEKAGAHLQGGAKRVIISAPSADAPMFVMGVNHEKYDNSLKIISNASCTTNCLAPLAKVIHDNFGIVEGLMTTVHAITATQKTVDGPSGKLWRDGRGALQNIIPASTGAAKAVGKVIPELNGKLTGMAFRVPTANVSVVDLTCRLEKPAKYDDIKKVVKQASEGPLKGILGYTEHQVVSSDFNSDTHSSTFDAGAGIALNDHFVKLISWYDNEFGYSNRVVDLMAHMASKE

Leucine aminopeptidase = target: T2, Leucine aminopeptidase (Plasmodium falciparum 3D7, UniProt Q8IL11); assay: P. falciparum M17LAP inhibitors, primary screen, biochemical, fluorogenic H-Leu-NHMec substrate, 1536-well (AID 1619); type: functional
T2 sequence (Q8IL11 whole entry): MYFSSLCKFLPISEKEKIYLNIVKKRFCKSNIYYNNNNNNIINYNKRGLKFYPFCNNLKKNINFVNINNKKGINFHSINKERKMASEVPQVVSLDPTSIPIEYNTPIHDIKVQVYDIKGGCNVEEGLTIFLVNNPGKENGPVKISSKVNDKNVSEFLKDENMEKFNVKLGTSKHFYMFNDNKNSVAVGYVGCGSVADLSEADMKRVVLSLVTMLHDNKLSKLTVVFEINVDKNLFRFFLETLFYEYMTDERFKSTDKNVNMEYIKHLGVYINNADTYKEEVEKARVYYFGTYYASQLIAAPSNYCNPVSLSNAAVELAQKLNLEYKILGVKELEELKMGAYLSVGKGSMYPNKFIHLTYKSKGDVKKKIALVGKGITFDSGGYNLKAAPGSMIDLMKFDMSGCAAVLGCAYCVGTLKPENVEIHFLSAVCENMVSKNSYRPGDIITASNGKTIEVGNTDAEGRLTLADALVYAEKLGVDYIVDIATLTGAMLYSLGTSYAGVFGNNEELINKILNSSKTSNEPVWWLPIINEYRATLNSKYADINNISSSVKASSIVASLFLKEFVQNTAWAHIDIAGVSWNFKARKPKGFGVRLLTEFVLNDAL

SMILES | IC50 [3] | IC50 (Leucine aminopeptidase) | other results
N=C(N)Nc1ccc2[nH]c3c(c2c1)C[C@@]1(O)[C@H]2Cc4ccc(O)c5c4[C@@]1(CCN2CC1CC1)[C@H]3O5 | – | – | IC50 [1]: > 20 µM (inactive); IC50 [2]: 24.4 µM (active)
CCN1CCN(C2=C(Cl)C(=O)N(c3cccc(C)c3)C2=O)CC1 | > 50 µM (inconclusive) | – | –
O=C(CSc1nnc[nH]1)Nc1ccc2c(c1)CCC2 | – | 22.3 µM (active) | –
CCOc1ccc(C(CC(=O)O)C(=O)O)cc1 (stereo unspecified) | > 100 µM (not active) | – | –
Cc1ccc(NC(=O)CSc2ncc(S(=O)(=O)c3ccccc3)c(O)n2)cc1C | – | 4.56 µM (active) | –
